Measured values published in PubChem BioAssay (NCI).
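Compound exposure: 48 hours, 5 concentrations, 96-well plates. TGI denotes the concentration required for complete inhibition of growth.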

Legend:
Test in all cases: NCI anticancer screen, dose series, 48 h
SF-539 CNS = tested on: SF-539 CNS
MDA-MB-435 = tested on: MDA-MB-435
T-47D breast = tested on: T-47D breast
SK-MEL-5 melanoma = tested on: SK-MEL-5 melanoma
UACC-62 melanoma = tested on: UACC-62 melanoma
HCC-2998 colon = tested on: HCC-2998 colon
OVCAR-8 ovarian = tested on: OVCAR-8 ovarian
OVCAR-4 ovarian = tested on: OVCAR-4 ovarian
786-0 renal = tested on: 786-0 renal
SK-MEL-2 melanoma = tested on: SK-MEL-2 melanoma
NCI-H23 lung = tested on: NCI-H23 lung
NCI-H460 lung = tested on: NCI-H460 lung
SK-OV-3 ovarian = tested on: SK-OV-3 ovarian
SNB-19 CNS = tested on: SNB-19 CNS
RPMI-8226 leukemia = tested on: RPMI-8226 leukemia
NCI-H522 lung = tested on: NCI-H522 lung
EKVX NSCLC = tested on: EKVX NSCLC
COLO 205 colon = tested on: COLO 205 colon
SK-MEL-28 melanoma = tested on: SK-MEL-28 melanoma
HT29 colon = tested on: HT29 colon
UO-31 renal = tested on: UO-31 renal
CAKI-1 renal = tested on: CAKI-1 renal
RXF 393 renal = tested on: RXF 393 renal
MOLT-4 leukemia = tested on: MOLT-4 leukemia
KM12 colon = tested on: KM12 colon
K-562 leukemia = tested on: K-562 leukemia
HCT-15 colon = tested on: HCT-15 colon
SF-268 CNS = tested on: SF-268 CNS
M14 melanoma = tested on: M14 melanoma
MDA-N = tested on: MDA-N
SF-295 CNS = tested on: SF-295 CNS
HOP-62 NSCLC = tested on: HOP-62 NSCLC
OVCAR-5 ovarian = tested on: OVCAR-5 ovarian
HL-60(TB) leukemia = tested on: HL-60(TB) leukemia
SW-620 colon = tested on: SW-620 colon
PC-3 prostate = tested on: PC-3 prostate
LOX IMVI melanoma = tested on: LOX IMVI melanoma
IGROV1 ovarian = tested on: IGROV1 ovarian
NCI/ADR-RES ovarian = tested on: NCI/ADR-RES ovarian
HS 578T breast = tested on: HS 578T breast
HOP-92 NSCLC = tested on: HOP-92 NSCLC
CCRF-CEM leukemia = tested on: CCRF-CEM leukemia
MDA-MB-231 breast = tested on: MDA-MB-231 breast
UACC-257 melanoma = tested on: UACC-257 melanoma
DU-145 prostate = tested on: DU-145 prostate
U251 CNS = tested on: U251 CNS
NCI-H226 lung = tested on: NCI-H226 lung
BT-549 breast = tested on: BT-549 breast
MCF7 breast = tested on: MCF7 breast
ACHN renal = tested on: ACHN renal
A549 NSCLC = tested on: A549 NSCLC
SNB-75 CNS = tested on: SNB-75 CNS
HCT-116 colon = tested on: HCT-116 colon
MALME-3M melanoma = tested on: MALME-3M melanoma
OVCAR-3 ovarian = tested on: OVCAR-3 ovarian
SR leukemia = tested on: SR leukemia
SN12C renal = tested on: SN12C renal
TK-10 renal = tested on: TK-10 renal
A498 renal = tested on: A498 renal

## CC(=O)OCC1OC(OC2CC3C(C)(C)C(=O)CC[C@]3(C)C3CC[C@]45C[C@]4(CCC5[C@@H](C)CC(O)C(O)C(C)(C)O)[C@]23C)C(O)C(O)C1O (some centres undefined)
SF-539 CNS
  TGI: 28.8 µM
MDA-MB-435
  TGI: 21.2 µM
T-47D breast
  TGI: 18.8 µM
SK-MEL-5 melanoma
  TGI: 20.3 µM
UACC-62 melanoma
  TGI: 22.5 µM
HCC-2998 colon
  TGI: 21.7 µM
OVCAR-8 ovarian
  TGI: 26.5 µM
OVCAR-4 ovarian
  TGI: 25.7 µM
786-0 renal
  TGI: 26.5 µM
SK-MEL-2 melanoma
  TGI: 17.1 µM
NCI-H23 lung
  TGI: 32.7 µM
NCI-H460 lung
  TGI: 27.1 µM
SK-OV-3 ovarian
  TGI: 28.9 µM
SNB-19 CNS
  TGI: 23.3 µM
RPMI-8226 leukemia
  TGI: 17.2 µM
NCI-H522 lung
  TGI: 22.7 µM
EKVX NSCLC
  TGI: 29.9 µM
COLO 205 colon
  TGI: 18.5 µM
SK-MEL-28 melanoma
  TGI: 12.6 µM
HT29 colon
  TGI: 16.7 µM
UO-31 renal
  TGI: 32.2 µM
CAKI-1 renal
  TGI: 31.1 µM
RXF 393 renal
  TGI: 21.9 µM
MOLT-4 leukemia
  TGI: 15.6 µM
KM12 colon
  TGI: 19.1 µM
K-562 leukemia
  TGI: 21.7 µM
HCT-15 colon
  TGI: 31.4 µM
SF-268 CNS
  TGI: 21.8 µM
M14 melanoma
  TGI: 22.2 µM
MDA-N
  TGI: 22.7 µM
SF-295 CNS
  TGI: 27.1 µM
HOP-62 NSCLC
  TGI: 33.8 µM
OVCAR-5 ovarian
  TGI: 30.8 µM
HL-60(TB) leukemia
  TGI: 5.05 µM
SW-620 colon
  TGI: 26 µM
PC-3 prostate
  TGI: 21.5 µM
LOX IMVI melanoma
  TGI: 12.6 µM
IGROV1 ovarian
  TGI: 23.2 µM
NCI/ADR-RES ovarian
  TGI: 32.8 µM
HS 578T breast
  TGI: 24.5 µM
HOP-92 NSCLC
  TGI: 13.7 µM
CCRF-CEM leukemia
  TGI: 16.7 µM
MDA-MB-231 breast
  TGI: 19.5 µM
UACC-257 melanoma
  TGI: 23.6 µM
DU-145 prostate
  TGI: 30.9 µM
U251 CNS
  TGI: 20.3 µM
NCI-H226 lung
  TGI: 30.6 µM
BT-549 breast
  TGI: 25.9 µM
MCF7 breast
  TGI: 16.7 µM
ACHN renal
  TGI: 30 µM
A549 NSCLC
  TGI: 31.6 µM
SNB-75 CNS
  TGI: 18.8 µM
HCT-116 colon
  TGI: 20 µM
MALME-3M melanoma
  TGI: 27.5 µM
OVCAR-3 ovarian
  TGI: 25.4 µM
SR leukemia
  TGI: 16.9 µM
SN12C renal
  TGI: 26.4 µM
TK-10 renal
  TGI: 28.1 µM

## Cc1ccc(OCCn2cc(Nc3ccccc3)c(=O)[nH]c2=O)cc1
SF-539 CNS
  TGI: > 100 µM
MDA-MB-435
  TGI: > 100 µM
T-47D breast
  TGI: > 100 µM
SK-MEL-5 melanoma
  TGI: > 100 µM
UACC-62 melanoma
  TGI: > 100 µM
HCC-2998 colon
  TGI: > 100 µM
OVCAR-8 ovarian
  TGI: > 100 µM
OVCAR-4 ovarian
  TGI: > 100 µM
786-0 renal
  TGI: > 100 µM
SK-MEL-2 melanoma
  TGI: > 100 µM
NCI-H23 lung
  TGI: > 100 µM
NCI-H460 lung
  TGI: > 100 µM
SNB-19 CNS
  TGI: > 100 µM
RPMI-8226 leukemia
  TGI: > 100 µM
NCI-H522 lung
  TGI: > 100 µM
EKVX NSCLC
  TGI: > 100 µM
COLO 205 colon
  TGI: > 100 µM
SK-MEL-28 melanoma
  TGI: > 100 µM
HT29 colon
  TGI: > 100 µM
UO-31 renal
  TGI: > 100 µM
CAKI-1 renal
  TGI: > 100 µM
RXF 393 renal
  TGI: > 100 µM
MOLT-4 leukemia
  TGI: > 100 µM
KM12 colon
  TGI: > 100 µM
K-562 leukemia
  TGI: > 100 µM
HCT-15 colon
  TGI: > 100 µM
SF-268 CNS
  TGI: > 100 µM
M14 melanoma
  TGI: > 100 µM
MDA-N
  TGI: > 100 µM
SF-295 CNS
  TGI: > 100 µM
OVCAR-5 ovarian
  TGI: > 100 µM
SW-620 colon
  TGI: > 100 µM
PC-3 prostate
  TGI: > 100 µM
LOX IMVI melanoma
  TGI: > 100 µM
IGROV1 ovarian
  TGI: > 100 µM
A498 renal
  TGI: > 100 µM
NCI/ADR-RES ovarian
  TGI: > 100 µM
HS 578T breast
  TGI: > 100 µM
HOP-92 NSCLC
  TGI: > 100 µM
CCRF-CEM leukemia
  TGI: > 100 µM
MDA-MB-231 breast
  TGI: > 100 µM
UACC-257 melanoma
  TGI: > 100 µM
DU-145 prostate
  TGI: > 100 µM
U251 CNS
  TGI: > 100 µM
NCI-H226 lung
  TGI: > 100 µM
BT-549 breast
  TGI: > 100 µM
MCF7 breast
  TGI: > 100 µM
ACHN renal
  TGI: > 100 µM
A549 NSCLC
  TGI: > 100 µM
SNB-75 CNS
  TGI: > 100 µM
HCT-116 colon
  TGI: > 100 µM
MALME-3M melanoma
  TGI: > 100 µM
OVCAR-3 ovarian
  TGI: > 100 µM
SR leukemia
  TGI: > 100 µM
SN12C renal
  TGI: > 100 µM
TK-10 renal
  TGI: > 100 µM
